Results on one compound are retold here after patent US12129475B2, “Glycoalkaloid metabolism enyzymes (GAMES) and uses thereof” (priority 2017, dated 2024).

One data set has as its system potato GAME25. Nature of the data set: In vitro assay of recombinant potato GAME25 (Sf9 microsomes, NAD+). The class given is biochemical, Solanum tuberosum. Conditions: 100 μM substrate, NAD+ 150 μM, pH 7.4, 37° C., 4 hrs; LC-MS. The protocol: (§1) For enzyme assay experiments, an additional MS-MS analysis with a collision energy ramp from 20 to 50 eV was performed to identify the structures of the enzymatic reaction products. The solanid-4-en-3-one product was identified based on the comparison of its retention time and MS-MS spectrum to those measured for its corresponding standard. Another three products (tomatid-4-en-3-one, solasod-4-en-3-one and diosgen-4-en-3-one) were putatively assigned as follows: first, elemental composition based on accurate masses and the isotopic pattern was calculated using the MassLynx software. Then the MS-MS fragmentation pattern was analyzed, and the fragments were assigned applying the fragmentation rules for steroid-based compounds.
(§2) Each expression vector construct was co-transfected with the ProGreen GFP linearized baculovirus DNA (AB vector) to generate the recombinant viruses in Spodoptera frugiperda (Sf9) insect cells. Infection efficiency was monitored by fluorescence of recombinant GFP viruses infected cells. Sf9 cells were grown in ESF921, protein free culture medium (Expression Systems). Three days post-infection cells were collected and washed twice in PBS. Microsomal fractions were isolated by suspending the cell pellet in 20 mM potassium phosphate buffer pH 7.25, 20% (v/v) glycerol, 1 mM EDTA and 1 mM DTT. The resuspended cells were sonicated, and the cell debris was removed by centrifugation at 10,000×g for 15 min. The supernatant was further centrifuged at 100,000×g for 60 min. The pellet containing the microsomal fractions was homogenized in lysis buffer. GAME25 was expressed with a myc-tag at the C-terminus. The isolated microsomal fractions were analyzed by SDS-PAGE and immune-blot with c-myc antibodies (A2S Technologies Ltd.).
(§3) The steroidal alkaloid aglycones dehydrotomatidine, solanidine and solasodine as well as their glycosylated forms (i.e. SGAs) α-tomatine, α-solanine, α-chaconine and α-solamargine were used as substrates for GAME25 enzyme assays. In vitro assays for the tomato and potato recombinant GAME25 enzymes were performed as follows: Briefly, microsomal fractions of Sf9 cells expressing tomato or potato GAME25 proteins (0.2 mg total protein was used per reaction) were separately incubated in sodium phosphate buffer (pH 7.4) with 100 μM of each individual substrate (details are mentioned above), DTT (5 mM) and NAD^+ (150 μM) at 37° C. for 4 hrs. The reactions were stopped by addition of 300 μl of 80% methanol and 0.1% formic acid, followed by brief vortex and sonication for 15 min. Finally, the extracts were centrifuged for 15 min at 14,000×g, filtered through 0.22 μm filters, and analyzed by LC-MS (see Plant extracts preparation and targeted profiling of steroidal metabolites section above). Sf9 cells (without the baculovirus vector) microsomes were used in control enzyme reactions.

The next data set relates to animals and humans. The settings on record: studies in animal models; cited from earlier work.
The test system of the next data set is SlGAME31. As to the kind of experiment: Enzymatic activity assay of recombinant SlGAME31 (hydroxylation of SA/SGAs). The class given is biochemical, Solanum lycopersicum. The protocol:
GAME31 was amplified from cDNA (SEQ ID NO: 17) and cloned into pET28 vector by restriction free (RF) cloning as described previously (Unger et al., 2010, J Struct Biol. 172:34-44).
The resulting plasmids were verified by sequencing and transformed to E. coli BL21 DE3. For isolation of the GAME31-His tagged enzymes, fresh overnight cultures were diluted 1:100 in 1000 ml of LB medium (Formedium) with 50 μg/ml kanamycin and incubated at 37° C. and 250 rpm until an A600 nm of 0.5 was reached. Subsequently, for induction of expression of the recombinant proteins, IPTG was added to a final concentration of […] and the incubation was continued overnight at 16° C. and 250 rpm. Then cells were harvested by centrifugation at 10,000×g and bacteria were lysed by sonication in a buffer (pH 7.4) containing 0.02 M NaH2PO4 0.02 M, 0.5 M NaCl, and SIGMAFAST protease inhibitor tablets (Sigma-Aldrich) and benzonase nuclease (Sigma-Aldrich) according to manufacturer's instructions. Lysed cultures were centrifuged, and the soluble fraction was purified by nickel affinity chromatography which was operated with an AKTA liquid chromatography system (AKTA avant, GE Healthcare) according to the manufacturer's instructions. Proteins were stored at −80° C. until further analysis.
All the SA/SGAs substrates were prepared at a concentration of 1 mg/ml, dissolved in methanol, except dehydrotomatine that was prepared in DMSO. The enzymatic activity was performed according to Kawai et al. (2014) Evolution and diversity of the 2-oxoglutarate-dependent dioxygenase superfamily in plants. Plant J. 78: 328-43. Briefly, the standard full reaction (100 μL) consisted of 10 mM L-ascorbic acid, 10 mM α-ketoglutaric acid, 500 μM FeSO4, 20 μM substrate, 50 mM potassium phosphate buffer (pH 7.5) and purified enzyme. All the components, except the enzyme, were pre-incubated for 10 min at 30° C., after which the reaction was started by addition of the enzyme. After incubation at 30° C. for 1 h, the reaction was stopped by freezing in liquid nitrogen Finally, the reaction was mixed with 300 μL methanol, extracted and analyzed by UPLC-qTOF-MS as described above.

For a further data set, the system named is tomato GAME25. Nature of the data set: In vitro assay of recombinant tomato GAME25 (Sf9 microsomes, NAD+). The class given is biochemical, Solanum lycopersicum. The settings on record: 100 μM substrate, NAD+ 150 μM, pH 7.4, 37° C., 4 hrs; LC-MS. The procedure:
as §1, §2, §3

Turning to `C[C@H]1CC[C@]2(NC1)O[C@H]1C[C@H]3[C@@H]4CC[C@H]5C[C@@H](O[C@@H]6O[C@H](CO)[C@H](O[C@@H]7O[C@H](CO)[C@@H](O)[C@H](O[C@@H]8OC[C@@H](O)[C@H](O)[C@H]8O)[C@H]7O[C@@H]7O[C@H](CO)[C@@H](O)[C@H](O)[C@H]7O)[C@H](O)[C@H]6O)CC[C@]5(C)[C@H]4CC[C@]3(C)[C@H]1[C@@H]2C` [α-tomatine], the “activity with substrate / product formed” value in the data set on potato GAME25 and in the data set on tomato GAME25 was “no activity” throughout. In addition, the “toxicity to animals and humans compared to SGAs possessing the C-5,6 double bond (e.g. α-chaconine and α-solanine)” value in the data set with animals and humans was “much less toxic”. Besides, the hydroxylation of substrate result in the data set with SlGAME31 (absence of iron) is given as “minor amounts of hydroxytomatine were still generated”; with SlGAME31 (full reaction: ketoglutaric acid, ascorbic acid, FeSO4, 20 μM substrate, 30° C., 1 h), “forming hydroxytomatine”; in the data set on SlGAME31 (removal of either cofactor (ketoglutaric or ascorbic acid)), “lack of activity”.
